Results as given in publication PMC9467586, “Development of novel 9-O-substituted-13-octylberberine derivatives as potential anti-hepatocellular carcinoma agents” (Journal of Enzyme Inhibition and Medicinal Chemistry, 2022).

Key:
[1] = test system: Hep3B cells; assay: In vitro antiproliferative MTT assay, Hep3B cells; assay type: cell-based, human; conditions: Homo sapiens, 72 h, mean ± SD (n = 3)
Protocol: (§1) HepG2, Sk-Hep-1, Huh-7, Hep3B and L-02 cells were purchased from Nanjing Key Gen Biotech Co. Ltd. (Nanjing, China). The cytotoxicity of test compounds was determined using an MTT assay. Briefly, the cell lines were incubated at 37 °C in a humidified 5% CO2 incubator for 24 h in 96-microwell plates. After medium removal, 100 μL of culture medium with 0.1% DMSO containing test compounds at different concentrations was added to each well and incubated at 37 °C for another 72 h. The MTT (5 mg/mL in PBS) was added and incubated for another 4 h, the optical density was detected with a microplate reader at 490 nm. The IC50 values were calculated according to the dose-dependent curves. All the experiments were repeated in at least three independent experiments.

[2] = test system: Huh-7 cells; assay: In vitro antiproliferative MTT assay, Huh-7 cells; assay type: cell-based, human; conditions: Homo sapiens, 72 h, mean ± SD (n = 3)
Protocol: as §1

[3] = test system: HepG2 cells; assay: In vitro antiproliferative MTT assay, HepG2 cells; assay type: cell-based, human; conditions: Homo sapiens, 72 h, mean ± SD (n = 3), read-out: IC50 (antiproliferative activity against HepG2 cells)
Protocol: as §1

[4] = test system: human hepatoma cells including HepG2, Sk-Hep-1 and Huh-7 cells; assay: Antiproliferative MTT assay, summary over human hepatoma cells; assay type: cell-based; conditions: read-out: IC50 values against human hepatoma cells (span over cell lines)
Protocol: as §1

[5] = test system: normal hepatocytes L-02; assay: MTT cytotoxicity assay, normal hepatocytes L-02; assay type: cell-based; conditions: Hepatocyte; normal hepatocytes L-02, MTT, 72 h, mean ± SD (n = 3)
Protocol: as §1

[6] = LWP coefficient (log D) measurement, shake flask; assay type: physicochemical; conditions: 1-octanol/phosphate buffer (PBS); 1-octanol/PBS pH 7.4, shake flask, 37 °C; read-out: Log D
Protocol: Berberine, 3c and 6k of 1 mg were dissolved in three centrifugal tubes (5 ml) containing phosphate buffer (pH 7.4)-saturated 1-octanol solution (2 mL), followed by the addition of 1-octanol saturated PBS (2 mL). Each tube was vigorously mixed for 1 min and then shaken for 6 h at a speed of 1000 rpm at 37 °C. The mixtures were then centrifuged. 1 mL of 1-octanol phase and 1 mL of buffer were separately collected. Each phase was diluted to a suitable concentration and analysed by HPLC (Shimadzu DGU-20A3R) on a Shimadzu-GL WondaSil C18-WR column (λ = 254 nm) with an eluent of methanol/water (65/35, v/v, 1.0 ml/min). The log D value for each compound was calculated from the ratio of the peak areas using the following equation: Log D = log (Areaoct × x/Areabuf × y). x, y is the dilution factor.

[7] = test system: H22 liver cancer xenograft; assay: In vivo anti-HCC assay, H22 liver cancer xenograft mouse model; parameters: species or system mice; conditions: 30 mg/kg, intravenous, once a day for 21 days, H22 mice
Protocol: Five-week-old male Institute of Cancer Research (ICR) mice were purchased from Shanghai SLAC Laboratory Animals Co. Ltd. Briefly, a total of 1 × 10^6 H22 cells were subcutaneously inoculated into the right flank of ICR mice according to protocols of tumour transplant research, to initiate tumour growth. After incubation for one day, mice were weighed and randomly divided into 5 groups of 8 animals. The groups were administered berberine (30 mg/kg) and 6k (15 or 30 mg/kg) in a vehicle of 10% DMF/2% Tween 80/88% saline, respectively. Vehicle and cyclophosphamide (20 mg/kg) were employed as negative and positive controls, respectively. Treatments were performed by intravenous injection once per day for a total of 21 consecutive days. Body weights and tumour volumes were measured every 2 days. The mice were sacrificed after the treatments, and the tumours were excised and weighed. The tumour volume and inhibition rate (w/w) were calculated as follows: tumour volume = L × W^2/2, where L is the length and W is the width; tumour inhibitory ratio (%) = (1-average tumour weight of treated group/average tumour weight of control group) × 100%. All procedures were performed following institutional approval in accordance with the NIH Guide for the Care and Use of Laboratory Animals.

[8] = test system: c-MYC G4 DNA (FPu18T); assay: FRET-melting assay, FPu18T (c-MYC G4 DNA model); conditions: 2 μM compounds
[9] = test system: Sk-Hep-1 cells; assay: In vitro antiproliferative MTT assay, Sk-Hep-1 cells; assay type: cell-based, human; conditions: Homo sapiens, SK-HEP1, 72 h, mean ± SD (n = 3)
Protocol: as §1

[10] = Aqueous solubility measurement by HPLC; assay type: physicochemical; conditions: PBS (50 mM, aqueous buffer, thermodynamic from solid); PBS (pH 7.4), 25 °C, HPLC; read-out: Solubility
Protocol: Berberine, 3c and 6k (5 mg) were dissolved in 1 ml PBS (50 mM, pH 7.4) at 25 °C. The suspension was sonicated for 30 min and then centrifuged at 15000 g for 5 min. The supernatant was filtered through a PTFE filter (0.2 μm) slowly. Then 10 μL filtered solution was injected into the HPLC system (Shimadzu DGU-20A3R) on a Shimadzu-GL WondaSil C18-WR column and quantified using the standard curves made by the corresponding known concentrations of berberine, 3c and 6k. The eluent was methanol/water (65/35, v/v) at a flow rate of 1.0 ml/min with the detection wavelength at 254 nm.

[11] = test system: duplex DNA (F10T); assay: FRET-melting assay, F10T (duplex DNA model); assay type: binding; conditions: 2 μM compounds

With `COc1ccc2cc3[n+](cc2c1OC)CCc1cc2c(cc1-3)OCO2` [Berberine] the IC50 [1] was > 50 µM, the IC50 [2] was > 50 µM and the IC50 [3] was > 50 µM. For the same compound, the IC50 [4] was > 50 µM, the IC50 [5] was > 50 µM and the logD [6] was -0.98. The “tumour inhibitory rate (TIR, w/w)” value [7] was 47.3%, the “ΔTm(A) = Tm(FPu18T + compound) - Tm(FPu18T)” value [8] was 1.2 °C and the IC50 [9] was > 50 µM. For the same compound, the solubility at 30 min [10] was 1360 µg/mL and the “ΔTm(B) = Tm(F10T + compound) - Tm(F10T)” value [11] was 2.0 °C.
